From PubChem BioAssay AID1259407 (Chemical Carcinogenesis Research Information System (CCRIS), 2018) come the findings set out here.

Activity calls are given as the source filed them. How the calls were made is not given here.

This data set relates to CCRIS mutagenicity, Ames/micronucleus/aberration tests. The data set is described as follows: CCRIS mutagenicity studies. The note with it: Test System: AMES SALMONELLA TYPHIMURIUM
An excerpt:
The CCRIS database contains chemical records with carcinogenicity, mutagenicity, tumor promotion, and tumor inhibition test results. It was developed by the National Cancer Institute (NCI). Data are derived from studies cited in primary journals, current awareness tools, NCI reports, and other sources. Test results have been reviewed by experts in carcinogenesis and mutagenesis.
CCRIS provides historical information from the years 1985 - 2011. It is no longer updated.
This is an archive assay for CCRIS mutagenicity studies.

Where [1] appears, read: Strain/Indicator: TA98, Metabolic Activation: NONE, Method: STANDARD PLATE.
[2] abbreviates: Strain/Indicator: TA98, Metabolic Activation: RAT, LIVER, S-9, AROCLOR 1254, Method: STANDARD PLATE.
[3] abbreviates: Strain/Indicator: TA100, Metabolic Activation: NONE, Method: STANDARD PLATE.
The mark [4] stands for this setting: Strain/Indicator: TA100, Metabolic Activation: RAT, LIVER, S-9, AROCLOR 1254, Method: STANDARD PLATE.
Where [5] appears, read: Strain/Indicator: TA1535, Metabolic Activation: NONE, Method: STANDARD PLATE.
Setting [6] is: Strain/Indicator: TA1535, Metabolic Activation: RAT, LIVER, S-9, AROCLOR 1254, Method: STANDARD PLATE.
Setting [7] is: Strain/Indicator: TA1537, Metabolic Activation: NONE, Method: STANDARD PLATE.
The mark [8] stands for this setting: Strain/Indicator: TA1537, Metabolic Activation: RAT, LIVER, S-9, AROCLOR 1254, Method: STANDARD PLATE.
The mark [9] stands for this setting: Strain/Indicator: TA1538, Metabolic Activation: NONE, Method: STANDARD PLATE.
Where [10] appears, read: Strain/Indicator: TA1538, Metabolic Activation: RAT, LIVER, S-9, AROCLOR 1254, Method: STANDARD PLATE.

Consider `O=c1oc2ccc([N+](=O)[O-])cc2c2ccccc12`, for which the mutagenic call runs as follows: (Strain/Indicator: TA98(1,8-DNP6), Metabolic Activation: NONE, Method: MICROSUSPENSION) “active; positive”; (Strain/Indicator: TA98(1,8-DNP6), Metabolic Activation: NONE, Method: PREINCUBATION) “active; positive”; (Strain/Indicator: TA98(1,8-DNP6), Metabolic Activation: NONE, Method: STANDARD PLATE) “active; positive”; (Strain/Indicator: TA98(NR), Metabolic Activation: NONE, Method: MICROSUSPENSION) “active; positive”; (Strain/Indicator: TA98(NR), Metabolic Activation: NONE, Method: PREINCUBATION) “inactive; negative”; (Strain/Indicator: TA98(NR), Metabolic Activation: NONE, Method: STANDARD PLATE) “active; positive”. Besides, the mutagenic call by setting is: (Strain/Indicator: TA98(NR), Metabolic Activation: RAT LIVER S-9 (15%), Method: PREINCUBATION) “active; positive”; (Strain/Indicator: TA98(NR), Metabolic Activation: RAT LIVER S-9, 3-METHYLCHOLANTHRENE (15%), Method: PREINCUBATION) “active; positive”; (Strain/Indicator: TA98(NR), Metabolic Activation: RAT LIVER S-9, BETA-NAPHTHAFLAVONE (15%), Method: PREINCUBATION) “active; positive”; (Strain/Indicator: TA98(NR), Metabolic Activation: RAT LIVER S-9, PCB (10%), Method: PREINCUBATION) “active; positive”; (Strain/Indicator: TA98(NR), Metabolic Activation: RAT LIVER S-9, PHENOBARBITAL (15%), Method: PREINCUBATION) “active; positive”; (Strain/Indicator: TA98(NR), Metabolic Activation: RAT, LIVER, S-9, AROCLOR 1254, Method: STANDARD PLATE) “active; positive”. In addition, the mutagenic call reads like this: (Strain/Indicator: TA98, Metabolic Activation: NONE, Method: MICROSUSPENSION) “active; positive”; (Strain/Indicator: TA98, Metabolic Activation: NONE, Method: PREINCUBATION) “active; positive”; under setting [1], “active; positive”; (Strain/Indicator: TA98, Metabolic Activation: RAT, LIVER, S-9, AROCLOR 1254, Method: MICROSUSPENSION) “active; positive”; under setting [2], “active; positive”; (Strain/Indicator: TA100, Metabolic Activation: NONE, Method: MICROSUSPENSION) “active; positive”. The mutagenic call was “active; positive” (Strain/Indicator: TA100, Metabolic Activation: NONE, Method: PREINCUBATION); “active; positive” under setting [3]; “active; positive” (Strain/Indicator: TA100, Metabolic Activation: RAT LIVER S-9, 3-METHYLCHOLANTHRENE (15%), Method: PREINCUBATION); “active; positive” (Strain/Indicator: TA100, Metabolic Activation: RAT, LIVER, S-9, AROCLOR 1254, Method: MICROSUSPENSION); “active; positive” under setting [4]; “active; positive” under setting [5]. Moreover, the mutagenic call reads like this: under setting [6], “active; positive”; under setting [7], “active; positive”; under setting [8], “active; positive”; under setting [9], “active; positive”; under setting [10], “active; positive”; (Strain/Indicator: TA7001, Metabolic Activation: NONE, Method: PREINCUBATION) “inactive; negative”. Further, the mutagenic call (Strain/Indicator: TA7001, Metabolic Activation: RAT LIVER S-9, 3-METHYLCHOLANTHRENE (15%), Method: PREINCUBATION) was “inactive; negative”; the mutagenic call (Strain/Indicator: TA7002, Metabolic Activation: RAT LIVER S-9, 3-METHYLCHOLANTHRENE (15%), Method: PREINCUBATION) is “active; positive”; the mutagenic call (Strain/Indicator: TA7003, Metabolic Activation: NONE, Method: PREINCUBATION) is “inactive; negative”; the mutagenic call (Strain/Indicator: TA7003, Metabolic Activation: RAT LIVER S-9, 3-METHYLCHOLANTHRENE (15%), Method: PREINCUBATION) is “inactive; negative”; the mutagenic call (Strain/Indicator: TA7004, Metabolic Activation: RAT LIVER S-9, 3-METHYLCHOLANTHRENE (15%), Method: PREINCUBATION) was “active; positive”; the mutagenic call (Strain/Indicator: TA7005, Metabolic Activation: RAT LIVER S-9, 3-METHYLCHOLANTHRENE (15%), Method: PREINCUBATION) is “active; positive”. Moreover, the mutagenic call reads like this: (Strain/Indicator: TA7006, Metabolic Activation: NONE, Method: PREINCUBATION) “inactive; negative”; (Strain/Indicator: TA7006, Metabolic Activation: RAT LIVER S-9, 3-METHYLCHOLANTHRENE (15%), Method: PREINCUBATION) “active; positive”.
Turning to `O=C(ON(OCc1ccccc1)C(=O)c1ccccc1)c1ccccc1`, the mutagenic call under setting [3] is “active; positive”.
As to `CN(CCO)C(=O)Nc1ccccc1`, the mutagenic call was “inactive; negative” under setting [1]; “inactive; negative” under setting [2]; “inactive; negative” under setting [3]; “inactive; negative” under setting [4]; “inactive; negative” under setting [5]; “inactive; negative” under setting [6]. Besides, the mutagenic call reads like this: under setting [7], “inactive; negative”; under setting [8], “inactive; negative”; under setting [9], “inactive; negative”; under setting [10], “inactive; negative”.
With `CC(=O)c1cc(O)c(C(C)C)c2cc(C)c(-c3c(C)cc4c(C(C)C)c(O)c(O)c(C=O)c4c3O)c(O)c12`, the mutagenic call is, setting by setting: (Strain/Indicator: TA97A, Metabolic Activation: S-9, Method: STANDARD PLATE) “inactive; negative”; (Strain/Indicator: TA98, Metabolic Activation: S-9, Method: STANDARD PLATE) “inactive; negative”; (Strain/Indicator: TA100, Metabolic Activation: S-9, Method: STANDARD PLATE) “inactive; negative”; (Strain/Indicator: TA102, Metabolic Activation: S-9, Method: STANDARD PLATE) “inactive; negative”.
Take `O[C@H]1C=Cc2c(cc3c4c(cc5ccccc53)-c3ccccc3-c24)[C@@H]1O`: the mutagenic call is, setting by setting: (Strain/Indicator: TA100, Metabolic Activation: MOUSE, LIVER, S-9, 3-METHYLCHOLANTHRENE, Method: STANDARD PLATE) “active; positive”; (Strain/Indicator: TA100, Metabolic Activation: RAT, LIVER, S-9, 3-METHYLCHOLANTHRENE, Method: STANDARD PLATE) “active; positive”.
